Values of other authors in patent publication US4039736A (Bristol-Myers Company, priority 1976, dated 1977).

Test system: animal tumor systems
Conditions: reported in literature; cited from earlier work

CC(=O)[C@]1(O)Cc2c(O)c3c(c(O)c2[C@@H](O[C@H]2C[C@H](N)[C@H](O)[C@H](C)O2)C1)C(=O)c1c(O)cccc1C3=O [carminomycin]
activity against animal tumor systems: active against several animal tumor systems
